Experiments:
Assay type in all cases: physicochemical
[1] = Variable temperature XRPD (heating under nitrogen protection, XRPD after cooling)
Experimental: (§1) Instruments and Experimental Conditions Used in the Example • 1. Differential Scanning Calorimeter, DSC • Instrument model: Mettler Toledo DSC3+Stare e System • Purge gas: nitrogen (50 mL/min) • Ramping rate: 10.0° C./min • Temperature range: 20-250° C. • 2. X-Ray Powder Diffraction, XRPD • Instrument model: Rigaku UltimalV X-ray powder diffractometer • Ray: monochromatic Cu—Kα ray (λ=1.5418 Å) • Scanning mode: θ/2θ, scanning range: 3-45° • Voltage: 40 kV, current: 40 mA • 3. Thermogravimetric Analysis, TGA • Instrument model: Mettler Toledo TGA2STAR eSystem • Purge gas: nitrogen • Ramping rate: 10.0° C./min • Temperature range: 20-250° C. • 4. Dynamic Vapour Sorption, DVS • Instrument model: TAQ5000VSA • Temperature: 25° C. • Solvent: water • Humidity change: 0-95-0-95-0% RH, step by 10%, less than 0.01% of mass change within […] as the judging standard • 4. HPLC Method • Instrument model: Agilent 1100 with VWD detector • Columns: poroshell 120 EC C18, 3.0 mm/50 mm/2.7 μm • Mobile phase: A: 0.03% NH4OH (25%~28%) in water • B: 0.03% NH4OH (25%~28%) in acetonitrile
The crystalline form A of Compound 1 was placed under nitrogen protection and heated to different temperatures (30° C., 92° C., 118° C., 132° C. and 175° C., respectively), then subjected to XRPD test after it was cooled.
The crystalline form B of Compound 1 was placed under nitrogen protection and heated to different temperatures (130° C. and 180° C., respectively), then subjected to XRPD test after it was cooled to room temperature.
The crystalline form C of Compound 1 was placed under nitrogen protection and heated to different temperatures (130° C. and 160° C., respectively), then subjected to XRPD test after it was cooled to room temperature.
The crystalline form D of Compound 1 was placed under nitrogen protection and heated to different temperatures (100° C. and 160° C., respectively), then subjected to XRPD test after it was cooled to room temperature.
The crystalline form E of Compound 1 was placed under nitrogen protection and heated to different temperatures (96° C. and 180° C., respectively), then subjected to XRPD test after it was cooled to room temperature.

[2] = Stability investigation of the crystalline form A (placement under temperature/humidity, XRPD and HPLC); conditions: for Crystalline form change: XRPD; for HPLC purity initial: before placement
Experimental: as §1
• Mobile Phase Flow Rate: 1.0 mL/min • Run time: 10.0 min • Injection volume: 2 μL • Detecting wavelength: UV, 254 nm • Column temperature: 25° C. • Injector temperature: RT • Diluent: acetonitrile:water=1:1 (v:v)
The crystalline form A of Compound 1 was placed under 60° C./closed condition for 24 hours, under 25° C./60% RH and 40° C./75% RH in an open state for one week, respectively. The physical and chemical stability of the sample was detected by XRPD and HPLC.

DVS hygroscopicity test = assay: DVS hygroscopicity test
Experimental: as §1
Hygroscopicity of the crystalline form A of Compound 1 was evaluated by DVS test.

[3] = heated to 180° C. under nitrogen
[4] = 40° C./75% RH, 1 week, open state
[5] = heated to 130° C. under nitrogen
[6] = heated to 160° C. under nitrogen

## Nc1nccc(Sc2cnc(N3CCC4(CC3)Cc3ncccc3[C@H]4N)n3ccnc23)c1Cl [crystalline form E, (S)-1′-(8-((2-amino-3-chloropyridin-4-yl)thio)imidazo[1,2-c]pyrimidin-5-yl)-5,7-dihydrospiro[cyclopentadieno[b]pyridine-6,4′-piperidine]-5-amine]
[1]; heated to 96° C. under nitrogen
  crystalline form after heating and cooling to room temperature: a small amount of diffraction signal of the crystalline form A is observed
[1]; [3]
  crystalline form after heating and cooling to room temperature: completely converted to the crystalline form A

## Nc1nccc(Sc2cnc(N3CCC4(CC3)Cc3ncccc3[C@H]4N)n3ccnc23)c1Cl [crystalline form A, (S)-1′-(8-((2-amino-3-chloropyridin-4-yl)thio)imidazo[1,2-c]pyrimidin-5-yl)-5,7-dihydrospiro[cyclopentadieno[b]pyridine-6,4′-piperidine]-5-amine]
[2]; 25° C./60% RH, 1 week
  HPLC purity After placement: 97.99 area %
  HPLC purity Relative to initial: 99.6%
  Crystalline form change: no crystalline form change
[2]; 25° C./60% RH, 1 week, listed as Crystalline form A
  Crystalline form change: no
[2]; [4]
  HPLC purity After placement: 97.89 area %
  HPLC purity Relative to initial: 99.5%
  Crystalline form change: only part of crystalline form A was converted to hydrate crystalline form B
[2]; 40° C./75% RH, 1 week, open state, listed as Crystalline form A
  Crystalline form change: yes
[2]; 60° C./closed, 24 hours
  HPLC purity After placement: 98.55 area %
  HPLC purity Relative to initial: 99.9%
  Crystalline form change: no crystalline form change
[2]; 60° C./closed, 24 hours, listed as Crystalline form A
  Crystalline form change: no
[2]; all three stability test conditions
  chemical stability (HPLC): good chemical stability
[2]; all three stability test conditions (25° C./60% RH 1 week, 40° C./75% RH 1 week, 60° C./closed 24 hours)
  purity maintained after placement (HPLC): about 98%
[2]; sample of the 25° C./60% RH and 40° C./75% RH 1 week tests
  HPLC purity initial: 98.41 area %
[2]; sample of the 60° C./closed 24 hours test
  HPLC purity initial: 98.60 area %
[2]; conclusion from Examples 1.67 and 1.68
  stability (overall conclusion of the stability investigation): excellent stability
DVS hygroscopicity test; DVS, 80.0% RH, 25° C.
  weight gain of moisture absorption: 1.88%
DVS hygroscopicity test; DVS, judged from weight gain at 80.0% RH
  hygroscopicity: slight hygroscopicity
DVS hygroscopicity test; XRPD before and after DVS
  crystalline form before and after DVS test (XRPD): consistent
[1]; heated to 30° C., 92° C., 118° C., 132° C. and 175° C. under nitrogen, XRPD after cooling
  crystalline form change during heating: no crystalline form change

## Nc1nccc(Sc2cnc(N3CCC4(CC3)Cc3ncccc3[C@H]4N)n3ccnc23)c1Cl [crystalline form C, (S)-1′-(8-((2-amino-3-chloropyridin-4-yl)thio)imidazo[1,2-c]pyrimidin-5-yl)-5,7-dihydrospiro[cyclopentadieno[b]pyridine-6,4′-piperidine]-5-amine]
[1]; [5]
  crystalline form after heating and cooling to room temperature: converted into an amorphous form
[1]; [6]
  crystalline form after heating and cooling to room temperature: converted to the crystalline form A

## Nc1nccc(Sc2cnc(N3CCC4(CC3)Cc3ncccc3[C@H]4N)n3ccnc23)c1Cl [crystalline form B, (S)-1′-(8-((2-amino-3-chloropyridin-4-yl)thio)imidazo[1,2-c]pyrimidin-5-yl)-5,7-dihydrospiro[cyclopentadieno[b]pyridine-6,4′-piperidine]-5-amine]
[1]; [5]
  crystalline form after heating and cooling to room temperature: converted into an amorphous form
[1]; [3]
  crystalline form after heating and cooling to room temperature: converted to the crystalline form A

## Nc1nccc(Sc2cnc(N3CCC4(CC3)Cc3ncccc3[C@H]4N)n3ccnc23)c1Cl [crystalline form D, (S)-1′-(8-((2-amino-3-chloropyridin-4-yl)thio)imidazo[1,2-c]pyrimidin-5-yl)-5,7-dihydrospiro[cyclopentadieno[b]pyridine-6,4′-piperidine]-5-amine]
[1]; heated to 100° C. under nitrogen
  crystalline form after heating and cooling to room temperature: crystallinity was significantly reduced
[1]; [6]
  crystalline form after heating and cooling to room temperature: diffraction signal of the crystalline form A is observed

From patent US12686691B2, “Crystalline form of SHP2 inhibitor, and composition thereof, preparation method therefor, and use thereof” (ETERN BIOPHARMA (SHANGHAI) CO., LTD., priority 2020, dated 2026)
